Reference: article PMC8362126, “Proteolysis Targeting Chimera (PROTAC) for Macrophage Migration Inhibitory Factor (MIF) Has Anti‐Proliferative Activity in Lung Cancer Cells” (Angewandte Chemie (International Ed. in English), 2021)

How the values were obtained:
[1] = system: ERK phosphorylation; test: ERK phosphorylation by western blot; type: cell-based, human; details: A549, 2 μM; for effect on pERK levels: 3 and 4 for 24 h, MD15 for 6, 24 or 48 h
Protocol: The effect of treatment with MIF‐directed PROTAC MD13 on MIF‐related signaling pathways was investigated by assessment of ERK phosphorylation using western blot analysis. […] Thus treatment with the MIF‐directed PROTAC MD13 inhibits ERK phosphorylation as a MIF‐related signaling event. […]
ERK signaling pathway study. A549 cells (2x10^5 cells per well) were seeded into each well of a 6-well plate with 2 mL RPMI-1640 medium containing 10% FBS (Costar Europe, Badhoevedorp, The Netherlands), and 1% penicillin/streptomycin solution (Corning). After overnight culturing, the cells were treated with MD13, MD15, or DMSO for the time indicated.
After that, cells were lysed by RIPA buffer containing 1× PhosSTOP and protease inhibitor (PI) cocktail (Roche, Mannheim, Germany). The BCA Protein Assay Kit (Pierce, Rockford IL, USA) was used to determine the protein concentration. 30 µg protein was separated by a pre-cast 10% NuPAGE Bis-Tris gel (Invitrogen, USA) and then transferred to a polyvinylidene difluoride (PVDF) membrane. After blocking with 5% of skimmed milk for 1 hour at room temperature and incubation with the appropriate primary antibody (pERK, #9101, Cell Signaling, 1:1000; GAPDH, #97166, Cell Signaling, 1:10000) overnight at 4 °C, the membrane was treated with an HRP-conjugated secondary goat anti-rabbit antibody (#P0448, Dako, 1:2000) or rabbit anti-mouse antibody (#P0260, Dako, 1:2000) at room temperature for 1 hour.
The protein bands were visualized with enhanced chemiluminescence (ECL) solution (GE Healthcare). The figures were quantified with imageJ software based on grayscale. […]

[2] = target: T1, MIF (Homo sapiens, UniProt P14174); test: MIF catalyzed 4-HPP tautomerization assay; type: biochemical; details: for IC50: 4-HPP conversion assay; for Ki: MIF catalyzed 4-HPP tautomerization, n=3
T1 sequence (P14174 2-115 limits assumed): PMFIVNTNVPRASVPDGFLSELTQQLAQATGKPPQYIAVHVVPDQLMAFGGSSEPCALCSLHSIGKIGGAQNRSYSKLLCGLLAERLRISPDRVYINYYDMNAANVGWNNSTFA
Protocol: S2. MIF Tautomerase activity IC50 study
The protocol for measuring inhibition of MIF tautomerase enzyme activity and enzyme kinetics was described previously.[8] Briefly, 180 µL of a 500 nM MIF solution in boric acid buffer (435 mM, pH 6.2) was mixed with 10 µL of a 20 mM EDTA solution in demiwater and 10 µL of a solution of the desired compound dissolved in DMSO or blanc DMSO. This mixture was pre-incubated at room temperature for 10 min. Next, 50 µL of this mixture was mixed with 50 µL of a 1 mM 4-HPP solution in ammonium acetate buffer (50 mM, pH 6.0). Subsequently, MIF tautomerase activity was monitored by measuring the increase of UV absorbance at 306 nm over time. MIF tautomerase activity in the presence a blank DMSO dilution was set to 100% enzyme activity. Non-catalyzed conversion of the substrate in absence of MIF was set to 0%.
Data from the first three minutes were used to calculate the initial velocities. All experiments were repeated three times and calculations were performed with the program GraphPad Prism.
Table S1. 4-HPP conversion assay results of MIF PROTACs
(also on this page, place not known: p rotocol previously. subs trate log [MD-1] (10^-6 M) Activity of MIF tautomerase(%) -2 -1 0 1 2 0 50 100 log [MD-2] (10^-6 M) Activity of MIF tautomerase(%) -2 -1 0 1 2 0 50 100)

[3] = system: A549 cells; test: Cell cycle analysis by flow cytometry (propidium iodide); type: cell-based, human; details: 48 h; for proportion of cells at the G2/M phase: control group 12 %
Protocol: The effect of MIF‐directed PROTAC MD13 on cell cycle progression was further analyzed using flow cytometry (Figure 6). A549 cells were treated with MD13 at concentrations of 1, 2, or 5 μM for the duration of 48 h before analysis using flow cytometry. […] The proportion of cells at the G2/M phase is 12 % for the control group. This percentage increases to 17 %, 19 %, and 23 % upon treatment with 1, 2, and 5 μM MD13, respectively. […]
Flow cytometry. For cell cycle analysis, A549 cells were seeded in 6 -well plates at a density of 1x10^5 per well. The next day, the cells were treated with the appropriate compound or vehicle for 48h. Subsequently, the cells were washed with PBS (3 ×) and then harvested after trypinzation. After centrifugation at 300g, the cells were incubated with a solutio n containing 20 µg/ml propidium iodide (PI) (Sigma, P4864) and 0.1% (v/v) Triton -X100 (Sigma, T8787) for 15 min at room temperature. Fluorescence was detected by a Cytoflex flow cytometer […]
(1 picture or pasted object on this page, not shown here)
(Beckman Coulter, Woerden, the Netherlands) immediately. 30,000 cells were collected for each sample. Data were analyzed using FlowJo software (Tree start, Ashland, USA). […]

Ki [2] [nM]	SMILES	inhibition at 2 µM ([1]; Homo sapiens, 24-hour treatment) [%]	IC50 [2] [nM]	proportion of cells at the G2/M phase ([3]; 1 μM) [%]	proportion of cells at the G2/M phase ([3]; 2 μM) [%]	proportion of cells at the G2/M phase ([3]; 5 μM) [%]	effect on pERK levels [1]	effect on the cell cycle ([3]; 5 μM)
55 ± 12	CN1C(=O)CCC(N2C(=O)c3cccc(NCCCCCCCC(=O)Nc4ccc(N5Cc6ccc(O)cc6OC5=O)cc4)c3C2=O)C1=O (stereo not drawn) [MD15]	–	83 ± 18	–	–	–	no significant decrease	little or no effect
103 ± 10	COc1ccc(N2Cc3ccc(O)cc3OC2=O)cc1OC [compound 3]	–	–	–	–	–	no significant decrease	–

SMILES	Ki [2] [nM]	inhibition at 2 µM ([1]; Homo sapiens, 24-hour treatment) [%]	IC50 [2] [nM]	proportion of cells at the G2/M phase ([3]; 1 μM) [%]	proportion of cells at the G2/M phase ([3]; 2 μM) [%]	proportion of cells at the G2/M phase ([3]; 5 μM) [%]	effect on pERK levels [1]	effect on the cell cycle ([3]; 5 μM)
O=C1CCC(N2C(=O)c3cccc(NCCCCCCCC(=O)Nc4ccc(N5Cc6ccc(O)cc6OC5=O)cc4)c3C2=O)C(=O)N1 (stereo not drawn) [MD13]	71 ± 5	~50	106 ± 7	17	19	23	–	–
